Patent US4745124A, “Orally effective anti-hypertensive agents” (priority 1983, dated 1988)
Counter-ions that a name gives are not always drawn.

Columns and labels:
[1] = test system: pressor effects of angiotensin I; assay: oral effectiveness: blood pressure response to angiotensin I in anesthetized rats; type: in vivo, rat; settings: oral 20 μmol/kg, Ex. 242
Procedure: Rats (210-290 g body weight) were fasted overnight and then anesthetized with intraperitoneal pentobarbital, 50-60 mg/kg. Tracheostomy was performed and the animals were ventilated mechanically. A cannula was inserted into a femoral vein for injection of angiotensin I or II, and a second cannula was inserted into a common carotid artery for direct measurement of arterial blood pressure. Heparin, 1,000 units, was injected via the femoral vein to prevent coagulation. Blood pressure was measured with a pressure transducer connected to a polygraph. The rats were injected with 80 ng of angiotensin I or angiotensin II in 20 μl of 0.9 g % NaCl; an amount of antiotensin I or II sufficient to raise mean arterial blood pressure by 27-40 mm Hg. After the responsiveness of a given rat to angiotensins I and II was established, compound (I), at 2 or 5 mg/kg (drug dissolved in 0.5 ml of H2 O plus 10 μl of 1N NaHCO3), was given via a stomach tube. At timed intervals, the effects of 80 ng of angiotensin I or angiotensin II on mean arterial blood pressure were tested.
Rats were prepared as described in Example 222. Compound (II) [N-benzoyl-L-phenylalanylthiopropanoyl)-L-proline] was given orally, via a stomach tube, at a dose of 12 mg/kg or 20 mg/kg. Compound (II) was dissolved in 0.5 ml of H2 O plus 10 μl of 1N NaHCO3. In all other respects, the experimental preparations were exactly as described in Example 222.
Rats (210-290 g body weight) were fasted overnight and then anesthetized with intraperitoneal pentobarbital, 50-60 mg/kg. Tracheostomy was performed and the animals were ventilated mechanically. A cannula was inserted into a femoral vein for injection of angiotensin I or II, and a second cannula was inserted into a common carotid artery for direct measurement of arterial blood pressure. Heparin, 1,000 units, was injected via the femoral vein to prevent coagulation. Blood pressure was measured with a pressure transducer connected to a polygraph. The rats were injected with 160 ng of angiotensin I or 80 ng of angiotensin II in 20 μl of 0.9 g % NaCl; an amount of angiotensin I or II sufficient to raise mean arterial blood pressure by 27-40 mm Hg. After the responsiveness of a given rat to angiotensins I and II was established, compound (B) at 10 mg (drug dissolved in 0.5 ml of H2 O plus 10 μl of 1N NaHCO3), was given via a stomach tube. At timed intervals, the effects of 160 ng of angiotensin I or 80 ng of angiotensin II on mean arterial blood pressure were tested. Results are shown below:
Rats (210-290 g body weight) were fasted overnight and then anesthetized with intraperitoneal pentobarbital, 50-60 mg/kg. Tracheostomy was performed and the animals were ventilated mechanically. A cannula was inserted into a femoral vein for injection of angiotensin I, and a second cannula was inserted into a common carotid artery for direct measurement of arterial blood pressure. Heparin, 1,000 units, was injected via the femoral vein to prevent coagulation. Blood pressure was measured with a pressure transducer connected to a polygraph. The rats were injected with 400 ng/kg of angiotensin I in 20 μl of 0.9 g % NaCl; an amount of angiotensin I sufficient to raise mean arterial blood pressure by 39 mm Hg. After the responsiveness of a given rat to angiotensin I was established, the named compound at 17 μmol/kg (drug dissolved in 0.15 ml of H2 O plus 10 μl of 1N NaHCO3), was given via a stomach tube. At timed intervals, the effects of 400 ng/kg of angiotensin I on mean arterial blood pressure were tested. Results are shown below:
Rats (190-290 g body weight) were fasted overnight and then anesthetized with intraperitoneal pentobarbital, 50-60 mg/kg. Tracheostomy was performed and the animals were ventilated mechanically. A cannula was inserted into a femoral vein for injection of angtiotensin I, and a second cannula was inserted into a common carotid artery for direct measurement of arterial blood pressure. […]

[2] = test system: pressor effects of angiotensin I; assay: intravenous effectiveness: blood pressure response to angiotensin I in anesthetized rats; type: in vivo, rat; settings: for t1/2: recovery of one half of lost responsiveness to angiotensin I 400 ng/kg; for Blood Pressure Response to 400 ng/kg of Angiotensin I: i.v. 1 μmole/Kg, Ex. 247
Procedure: (§1) Anesthetized rats were prepared as described in Example 228. After the responsiveness of a given rat to angiotensin I was established, the named compound at 2 μmol/kg, in a volume of 15 μl of 0.01N sodium bicarbonate, was injected via a femoral vein. At timed intervals, the effects of angiotensin I, 400 ng/kg, on mean arterial blood pressure were tested. Results are shown below:
as §1, with “231.” for “228.”, “compound,” for “compound”
Anesthetized rats were prepared as described in Example 239. The animals were administered the named compound via a femoral vein in 15 μl of 0.01N sodium bicarbonate, after the control response to 400 ng/kg of angiotensin I was measured. […] The time required for recovery of one half of the lost responsiveness to angiotensin I, following injection of the named compound, was designated t1/2. […] Results are shown for two dose levels:
Anesthetized rats were prepared as described in Example 242. The named compound was administered intravenously via a femoral vein, at the stated dose, in 15 μl of 0.01N sodium bicarbonate. The response to intravenous administration was a rapid decrease in responsiveness to Angtiotensin I, 400 ng/kg, followed by a gradual recovery to the pretreatment level of responsiveness. The time required for recovery of one half the lost responsiveness to angiotensin I, following injection of the named compound, is designated t1/2. […] Results are shown for the three dose levels:
The intravenous effectiveness of the named compound was examined by following the procedure described in Example 244 except that 1 μmole/kg of the drug was given intravenously. The results are shown below:
The intravenous effectiveness of the named compound was examined by following the procedure described in Example 246 except that 1 μmole/Kg of the drug was given intravenously.

C[C@H](CSC(=O)[C@H](Cc1c[nH]c2ccccc12)NC(=O)c1ccccc1)C(=O)N1CCC[C@H]1C(=O)O [N-alpha-[3-(N-alpha-benzoyl-L-tryptophylthio)-2-D-methylpropanoyl]-1-proline]
Blood Pressure Response to 400 ng/kg of Angiotensin I ([1]; 3 min): 92 % of Control
Blood Pressure Response to 400 ng/kg of Angiotensin I ([1]; 7 min): 64 % of Control
Blood Pressure Response to 400 ng/kg of Angiotensin I ([1]; 21 min): 32 % of Control
Blood Pressure Response to 400 ng/kg of Angiotensin I ([1]; 26 min): 40 % of Control
Blood Pressure Response to 400 ng/kg of Angiotensin I ([1]; 32 min): 40 % of Control
Blood Pressure Response to 400 ng/kg of Angiotensin I ([1]; 38 min): 20 % of Control
Blood Pressure Response to 400 ng/kg of Angiotensin I ([1]; 50 min): 8 % of Control
Blood Pressure Response to 400 ng/kg of Angiotensin I ([1]; 56 min): 8 % of Control
Blood Pressure Response to 400 ng/kg of Angiotensin I ([1]; 70 min): 8 % of Control
Blood Pressure Response to 400 ng/kg of Angiotensin I ([1]; 79 min): 20 % of Control
Blood Pressure Response to 400 ng/kg of Angiotensin I ([1]; 87 min): 12 % of Control
Blood Pressure Response to 400 ng/kg of Angiotensin I ([1]; 104 min): 12 % of Control
Blood Pressure Response to 400 ng/kg of Angiotensin I ([1]; 114 min): 20 % of Control
Blood Pressure Response to 400 ng/kg of Angiotensin I ([1]; 124 min): 40 % of Control
Blood Pressure Response to 400 ng/kg of Angiotensin I ([1]; 136 min): 40 % of Control
Blood Pressure Response to 400 ng/kg of Angiotensin I ([1]; 148 min): 36 % of Control
Blood Pressure Response to 400 ng/kg of Angiotensin I ([1]; 173 min): 48 % of Control
Blood Pressure Response to 400 ng/kg of Angiotensin I ([1]; 186 min): 48 % of Control
Blood Pressure Response to 400 ng/kg of Angiotensin I ([1]; 199 min): 68 % of Control
Blood Pressure Response to 400 ng/kg of Angiotensin I ([1]; 212 min): 64 % of Control
Blood Pressure Response to 400 ng/kg of Angiotensin I ([1]; 226 min): 64 % of Control
Blood Pressure Response to 400 ng/kg of Angiotensin I ([1]; 242 min): 80 % of Control
Blood Pressure Response to 400 ng/kg of Angiotensin I ([1]; 260 min): 80 % of Control
Blood Pressure Response to 400 ng/kg of Angiotensin I ([1]; 291 min): 84 % of Control
t1/2 ([2]; i.v. 0.193 μmol/kg): 11 min
t1/2 ([2]; i.v. 0.58 μmol/kg): 11 min
t1/2 ([2]; i.v. 1.93 μmol/kg): 15 min

C[C@H](CSC(=O)C(Cc1ccccc1)NC(=O)c1ccccc1)C(=O)N1CCC[C@H]1C(=O)O (stereo partly drawn) [potassium salt of N-alpha[3-(N-alpha-benzoyl-D,L-phenylalanylthio)-2-D-methylpropanoyl]-L-proline]
Blood Pressure Response to 400 ng/kg of Angiotensin I ([2]; 5 min): 46 % of Control
Blood Pressure Response to 400 ng/kg of Angiotensin I ([2]; 10 min): 37 % of Control
Blood Pressure Response to 400 ng/kg of Angiotensin I ([2]; 15 min): 41 % of Control
Blood Pressure Response to 400 ng/kg of Angiotensin I ([2]; 20 min): 37 % of Control
Blood Pressure Response to 400 ng/kg of Angiotensin I ([2]; 30 min): 44 % of Control
Blood Pressure Response to 400 ng/kg of Angiotensin I ([2]; 40 min): 50 % of Control
Blood Pressure Response to 400 ng/kg of Angiotensin I ([2]; 50 min): 39 % of Control
Blood Pressure Response to 400 ng/kg of Angiotensin I ([2]; 60 min): 46 % of Control
Blood Pressure Response to 400 ng/kg of Angiotensin I ([2]; 90 min): 52 % of Control
Blood Pressure Response to 400 ng/kg of Angiotensin I ([2]; 120 min): 59 % of Control
